Source: US6613797B2, “Xanthone analogs for treating infectious diseases and complexation of heme and porphyrins” (Interlab, Inc., priority 1999, dated 2003)
In brackets after ≈: the same amount, converted by molar mass. Where two headings read alike, the source gives them in different places. Values belong to the molecule of their own block, whether it stands above or below them.

What was measured:
[1] = test system: Plasmodium falciparum D6 strain; assay: in vitro anti-malarial activity, [3H]-ethanolamine incorporation method; type: cell-based
Description: Cultures were maintained at 37° C. in a gas mixture of 5% oxygen, 5% CO2, and 90% nitrogen.
[^3H]-ethanolamine was obtained from American Radiolabeled Chemicals, Inc., St. Louis, Mo. Experiments were conducted in 96 well plates in a total volume of 200 μl at a final red blood cell concentration of 2% (v/v). An initial parasitemia of 0.2 to 0.5% was attained by addition of normal uninfected red cells. Radiolabeled ethanolamine was added after 48 hours of incubation and the experiment was terminated after 72 hours by collecting the cells onto glass fiber filters with an automated multiwell harvester.
Stock solutions of the various Formula X1 compounds were dissolved in DMSO at a concentration of 1 mM and diluted in complete medium (including 10% human serum) to provide 10X stock concentrations in the range of 1 to 10,000 nM.

[2] = test system: Candida albicans; assay: anti-Candida activity, MIC by visual inspection; type: cell-based; settings: conversion of the MIC, read-out: IC50 corresponding to the MIC against Candida albicans
Description: The minimum inhibitory concentration (MIC) of formula X1 compounds against a clinical isolate of Candida albicans was determined using the following method. […] The determination of this concentration is made by visual inspection; there is no visible growth in a tube containing the MIC of the formula X1 compound whereas visible growth is present in tubes containing sub-MIC concentrations of the compound.
Candida albicans was grown to midlog-phase in Luria-Bertani broth (10 grams Bacto-tryptone, 5 grams Bacto-yeast extract and 10 grams NaCl per liter) and then inoculated into sterile test tubes containing LB broth to an initial density of 10^3/ml. The formula X1 compound to be tested is dissolved in dimethylsulfoxide (DMSO) at a concentration of 1 mM and added to each tube at serial dilutions (1 μM, 10 μM, 25 μM, 50 μM, 100 μM and 0 μM). The tubes are incubated at 35° C. for 15-18 hours and then visually inspected.

[3] = in vitro heme aggregation (polymerization) assay; type: biochemical; settings: for inhibitory activity in heme polymerization assay: result in words
Description: Heme polymerization was carried out in 0.02 M phosphate buffer, pH 5.2 at 37° C. in the absence of protenis. A 10 mM stock solution of hemin chloride in 0.1 M NaOH wa prepared freshly and incuated at 37° C. for at least 1 hour to effect complete dissolution. Xanthones were dissolved in dimethylformamide at 10 mM and diluted into 10 ml of pre-warmed phosphate solution to a final concentraion of 25 μm. […] 25 μl of dimethylformaide wa added to the control smample. After 7, 30, 60, 120 and 190 minutes of incugation at 37° C., a 1 ml aliquot was withdraqwn, tranferred into an Eppendorf tube, and centrifugted at 14,000 g for 2 minutes at room temperature to pellet the precipitate. The soluble fraction was then transferred to a semi-microcuvette (polymethyacrylate, VER), and its absoprtion was measured at 360 nm against a blank of the test compound in buffer.
The reactions were allowed to proceed for 2 hours in a 37° C. waterbath. After incubation, the polymer was pelleted as described above and the absorption (360 nm) of each soluble fraction was measured against a blank containing the drug alone in buffer. The IC50 values were determined by nonlinear regression analysis of the dose-response curves of percent inhibition of heme polymerization vs. drug concentration.

[4] = test system: intracellular amastigotes of Leishmania mexicana M379; assay: intracellular amastigote assay in infected murine macrophages; type: cell-based
Description: Bone-marrow-derived macrophages (BALB/c) were cultured with L-cell-conditioned medium for 5-7 days at 35° C. After this period of incubation, mature macrophages were transferred to Labtek 4-chamber slides containing DMEM (Dulbecco's Modified Eagle's Medium) and 10% fetal calf serum. 50,000 cells were seeded in each chamber and allowed to attach overnight at 37° C. in a humidified incubator flushed with 5% CO2. On the next day the macrophages were infected at an MOI (Multiplicity of Infection) of 10:1 with stationary promastigotes of L. mexicana. After twenty-four hours, the medium was removed and fresh medium was added containing various drug concentrations (0-5 μM). Following incubation for an additional forty-eight hours, one set of slides were fixed in methanol, dried, and stained with Giemsa stain. Fresh medium and drug were added to a parallel set of chamber slides and incubated for another 48 hours before staining. […] Microscopic inspection permitted determination of % of infected macrophages and the number of amastigotes per 100 macrophages. The IC50 value is that concentration of drug that reduces the amastigote number by 50% relative to drug-free controls. Results also were obtained in parallel fashion with macrophages.
Intracellular amastigote studies. […] Because the amastigote stage is the only relevant clinical form of the parasites, we examined the activity of the nitrogenated xanthones against the heme-auxotrophic, intracellular amastigote form of L. mexicana. Stationary promastigotes of L. mexicana M379 rapidly invaded murine peritoneal macrophages obtained from BALB/c mice and incubated at 35° C. producing heavily burdened cells with 10 to 50 amastigotes per macrophage within 24 hours. An experiment was performed to investigate the ability of selected xanthones to reduce the number of intracellular amastigotes using this model. The IC50 value is that concentration of drug required to reduce the intracellular parasite burden by 50% relative to a drug-free control chamber. We tested the xanthone series against amastigote-infected murine peritoneal macrophages. Macrophages were seeded into Labtek chamber slides (25,000 per well/8 chamber slide) and allowed to incubate overnight in Dulbecco's Modified Eagle Medium (DMEM) supplemental with 10% fetal calf serum. On the next day the cells were infected with L. mexicana promastigotes at an MOI of 5:1 and then incubated for 24 hours at 35° C. After incubation, the monolayers were washed with buffer and medium containing varying concentrations of each xanthone (0 to 10 μM) was added to each chamber. After 48 hours of incubation (i.e., Day 3 of the experiment) one set of slides was removed, fixed with methanol, and stained with Giemsa. For another set of slides, we replenished the culture medium, added fresh drug to each well as appropriate, and then incubated the chambers for another 48 hours before staining with Giemsa. IC50 values were then averaged for 3 separate experiments and the results are presented in Table 4 and graphically in FIG. 7. […] The IC50 values recorded for C5 and C6 exposure for 96 hours of treatment were 6 nM and 2 nM.

[5] = test system: P. falciparum W2 strain; assay: antimalarial activity against multidrug resistant W2 strain; type: cell-based, Plasmodium falciparum
Description: A decision was made to retain the oxygen atom (a conjugatively electron-donating species) as a bridge for an R-group containing the protonatable nitrogen. […] For comparative purposes, the straight-chain di-substituted series from C2 to C8 (i.e., excepting C7), each with a terminal diethylamino group was prepared. Shown in Table 4 is the remarkable relationship between chain length and antimalarial activity within the series . . . and the extraordinary potency of the C5 (3,6-bis-ω-diethylaminoamyloxyxanthone) and C6 (3,6-bis-ω-diethylaminohexyloxyxanthone) congeners.

[6] = Plasmodium falciparum, D6, Table 4, average of 2 experiments in triplicate, 72 hour assay, read-out: IC50 μM* P. falciparum D6
[7] = Plasmodium falciparum, D6, Table 3, read-out: IC50 μM, P. falciparum clone D6
[8] = Table 3, 25 μM heme, pH 5.2, 37° C., 2 hours, average of at least two determinations, read-out: IC50, μM in vitro heme polymerization
[9] = text b143, read-out: IC50, inhibition of heme polymerization
[10] = Plasmodium falciparum, D6, read-out: IC50 μM, P. falciparum clone D6
[11] = Leishmania mexicana, Macrophage, 48 h, read-out: IC50 μM** L. mexicana
[12] = Table 4, average of 2 experiments in triplicate, 72 hour assay, read-out: IC50 μM* P. falciparum D6
[13] = P. falciparum D6, read-out: IC50, anti-malarial activity
[14] = 96 hours of treatment, peritoneal macrophages, read-out: IC50, L. mexicana amastigotes
[15] = Table 4, 48 hours of drug exposure, reduction of amastigote burden by 50%, read-out: IC50 μM** L. mexicana

IC50 [1, 6]: 2.5 µM
SMILES: CCN(CC)CCCCCOc1ccc2c(=O)c3ccccc3oc2c1 [3-(N,N-diethylamino)amyloxy-xanthone]

SMILES: O=c1c2ccc(O)c(O)c2oc2c(O)c(O)c(O)cc12 [2,3,4,5,6-pentahydroxyxanthone]
IC50 [1, 7]: 0.4 µM
IC50 [2]: ~10 µg/mL (≈ 36.2 µM)
IC50 [3, 8]: 1.2 µM
IC50 [3, 9]: 1.2 µM
IC50 ([4]; Leishmania mexicana, Macrophage, read-out: IC50, anti-leishmanial activity): ~1 µg/mL
IC50 ([4]; Leishmania mexicana, Macrophage, intracellular amastigote method, read-out: IC50, anti-leishmanial activity): ~5 µM

SMILES: O=c1c2ccc(O)cc2oc2cc(O)ccc12 [3,6-dihydroxyxanthone]
IC50 [1, 10]: > 100 µM
IC50 [3, 8]: > 500 µM

IC50 [1, 7]: 0.1 µM
IC50 [2]: ~10 µg/mL (≈ 34.2 µM)
IC50 [3, 8]: 1.4 µM
SMILES: O=c1c2cc(O)c(O)c(O)c2oc2c(O)c(O)c(O)cc12 [2,3,4,5,6,7-hexahydroxyxanthone]

IC50 [1, 6]: 2.8 µM
SMILES: CCN(CC)CCOc1cccc2c(=O)c3cccc(OCCN(CC)CC)c3oc12 [45-DEAE-X, 4,5-bis-β-(N,N-diethylamino)ethoxy-xanthone]

IC50 ([1]; Plasmodium falciparum, D6, Table 4, cells printed in nM, 72 hour assay, read-out: IC50 μM* P. falciparum D6): 0.575 µM
SMILES: CCN(CC)CCCCCOc1cccc2c(=O)c3cccc(OCCCCCN(CC)CC)c3oc12

IC50 [1, 7]: 1 µM
IC50 [3, 8]: 9 µM
SMILES: O=c1c2cc(O)c(O)c(O)c2oc2cc(O)cc(O)c12 [1,3,5,6,7-pentahydroxyxanthone]

IC50 ([1]; Plasmodium falciparum, D6, read-out: IC50, anti-malarial activity): ~0.04 µM
SMILES: CCN(CC)CCCC(C)Nc1ccnc2cc(Cl)ccc12 (stereo not drawn) [Chloroquine, reference compound]

IC50 [1, 6]: 20 µM
IC50 ([1]; Plasmodium falciparum, P. falciparum D6, read-out: IC50, anti-malarial activity): ~20 µM
SMILES: CCN(CC)c1ccc2c(=O)c3ccc(N(CC)CC)cc3oc2c1 [36-DEAX, 3,6-bis-N,N-diethylamino-xanthone]

IC50 [1, 7]: 40 µM
IC50 [3, 8]: 17 µM
IC50 [3, 9]: 16.5 µM
SMILES: O=c1c2ccccc2oc2c(O)c(O)c(O)cc12 [2,3,4-trihydroxyxanthone]

SMILES: CCN(CC)CCCCOc1ccc2c(=O)c3ccc(OCCCCN(CC)CC)cc3oc2c1 [36-DEAB-X, 3,6-bis-δ-(N,N-diethylamino)butoxy-xanthone]
IC50 [1, 6]: 0.65 µM
IC50 [4, 11]: 0.2 µM

IC50 [1, 7]: > 100 µM
IC50 [3, 8]: > 1000 µM
SMILES: COc1cc2c(=O)c3ccc(OC)c(OC)c3oc2c(OC)c1OC [2,3,4,5,6-pentamethoxyxanthone]
inhibitory activity in heme polymerization assay [3]: inactive

SMILES: O=c1c2ccccc2oc2cc(O)ccc12 [3-hydroxyxanthone]
IC50 [1, 10]: > 100 µM
IC50 [3, 8]: > 1000 µM

SMILES: CC(=O)Oc1cc2c(=O)c3ccc(OC(C)=O)c(OC(C)=O)c3oc2c(OC(C)=O)c1OC(C)=O [2,3,4,5,6-pentaacetoxyxanthone]
IC50 [1, 7]: 0.075 µM
IC50 [3, 8]: > 1000 µM
inhibitory activity in heme polymerization assay [3]: inactive

IC50 [1, 7]: 75 µM
IC50 [3, 8]: > 1000 µM
SMILES: O=c1c2ccccc2oc2cc(O)cc(O)c12 [1,3-dihydroxyxanthone]

SMILES: CCN(CC)CCCCCCCCOc1ccc2c(=O)c3ccc(OCCCCCCCCN(CC)CC)cc3oc2c1 [36-DEAOctyloxy-X, 3,6-bis-(N,N-diethylamino)octyloxy-xanthone]
IC50 [1, 12]: 0.43 µM

SMILES: CCN(CC)CCOc1ccc2c(=O)c3ccc(OCCN(CC)CC)cc3oc2c1 [36-DEAE-X, 3,6-bis-β-(N,N-diethylamino)ethoxy-xanthone]
IC50 [1, 6]: 2.2 µM
IC50 [4, 11]: ~1.25 µM

SMILES: O=c1c2ccccc2oc2ccccc12 [Xanthone]
IC50 ([1]; Plasmodium falciparum, D6, read-out: IC50, μM vs. Plasmodium): > 10 µM
inhibitory activity in heme polymerization assay [3]: did not exhibit any inhibitory activity

SMILES: CCN(CC)CCCCCOc1ccc2c(=O)c3ccc(OCCCCCN(CC)CC)cc3oc2c1 [36-DEAAmyl-X, 3,6-bis-ε-(N,N-diethylamino)-amyloxy-xanthone]
IC50 [1, 13]: ~0.1 µM
IC50 [1, 12]: 0.1 µM
degree of potency against W2 compared with D6 [5]: the same
IC50 [4, 14]: 0.006 µM
IC50 [4, 15]: 0.06 µM

IC50 [1, 7]: 5 µM
IC50 [3, 8]: 2.5 µM
SMILES: O=c1c2ccc(O)c(O)c2oc2c(O)c(O)ccc12 [3,4,5,6-tetrahydroxyxanthone]

IC50 [1, 7]: 16 µM
IC50 [3, 8]: 14 µM
SMILES: O=c1c2cccc(O)c2oc2c(O)cccc12 [4,5-dihydroxyxanthone]

SMILES: CCN(CC)CCCCCCOc1ccc2c(=O)c3ccc(OCCCCCCN(CC)CC)cc3oc2c1 [36-DEAHexyl-X, 3,6-bis-(N,N-diethylamino)-hexyloxy-xanthone]
IC50 [1, 13]: ~0.1 µM
IC50 [1, 12]: 0.075 µM
degree of potency against W2 compared with D6 [5]: the same
IC50 [4, 14]: 0.002 µM
IC50 [4, 15]: 0.02 µM

SMILES: CCN(CC)CCCOc1ccc2c(=O)c3ccc(OCCCN(CC)CC)cc3oc2c1 [36-DEAP-X, 3,6-bis-γ-(N,N-diethylamino)propoxy-xanthone]
IC50 [1, 6]: 1.5 µM
IC50 [4, 11]: 0.5 µM

SMILES: O=c1c2ccccc2oc2ccc(O)cc12 [2-hydroxyxanthone]
IC50 [1, 10]: 50 µM
IC50 [3, 8]: > 1000 µM
